Laboratory results reported in patent US9493468B2, “Antifungal 5,6-dihydro-4H-pyrrolo[1,2-a][1,4]benzo-diazepines and 6H-pyrrolo[1,2-a][1,4]benzodiazepines substituted with heterocyclic derivatives” (Janssen Pharmaceutica NV, priority 2011, dated 2016).

Columns and labels:
Format in all cases: cell-based
[1] = tested on: Candida parapsilosis; test: Antifungal activity in vitro, resazurin growth inhibition: Candida parapsilosis (B66126); settings: for IC50: Lodderomyces parapsilosis, read-out: Inf. D: Candida parapsilosis B66126 pIC50 (converted)
Procedure, shortened: (§1)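 Compound dilutions, with 64 μM as the highest in-test level, are spotted onto plates, then an inoculum of 10^3 cfu in RPMI-1640 plus 2% glucose (MOPS, pH 7.0±0.1) is added. Plates are incubated at species-dependent time and temperature, up to a week or more at 27° C. for dermatophytes.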

[2] = tested on: Trichophyton rubrum; test: Antifungal activity in vitro, resazurin growth inhibition: Trichophyton rubrum (B68183); settings: for IC50: read-out: Inf. C: Trichophyton rubrum B68183 pIC50 (converted)
Procedure, shortened: (§2)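 Broth microdilution: RPMI-1640/L-Gln/2% glucose, MOPS pH 7.0±0.1; 10^3 cfu/well; top concentration 64 μM, 2- or 4-fold steps. Dermatophytes at 27° C., one week or more. Resazurin 0.005% (w/v) added, fluorescence 550/590 nm.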

[3] = tested on: Microsporum canis; test: Antifungal activity in vitro, resazurin growth inhibition: Microsporum canis (B68128); settings: for IC50: read-out: Inf. B: Microsporum canis B68128 pIC50 (converted)
Procedure, shortened: as §2

[4] = tested on: Rhizomucor miehei; test: Antifungal activity in vitro, resazurin growth inhibition: Rhizomucor miehei (IHEM13391)
Description: (§3) The standard susceptibility screen is performed in 96-well plates (U-bottom, Greiner Bio-One). Serial dilutions (2-fold or 4-fold) of 20 mM compound stock solutions are made in 100% DMSO, followed by an intermediate dilution step in water. These serial dilutions (10 μl) are then spotted onto test-plates that can be stored in the dark at 4° C. for a maximum period of 2 weeks. An adequate broad dose-range is included with 64 μM as the highest in-test concentration. The culture medium RPMI-1640 is supplemented with L-glutamine, 2% glucose and buffered with 3-(N-morpholino)-propanesulfonic acid (MOPS) at pH 7.0±0.1.
(§4) The different fungal species/isolates (Table 3a) are cryopreserved and 1/1000 diluted in medium just prior to use. A standard inoculum of 200 μl containing 10^3 colony-forming unit (cfu) is then added to each well. A positive control (100% growth=fungal culture without antifungal) and a negative control (0% growth ═RPMI-MOPS medium) are included on each plate. Optimal incubation time and temperature are dependent on the fungal species and vary from 24 h for yeasts (37° C.) to one week or more for dermatophytes (27° C.). Inhibition of fungal growth is measured after adding 10 μl of 0.005% (w/v) resazurin (Sigma Aldrich) to each well, based on the principle that living cells convert the non-fluorescent blue resazurin into the pink and fluorescent resorufin, allowing fluorimetric reading (λex 550 nm and λem 590 nm) after an additional incubation period (‘resa’ time mentioned in Table 3a).

[5] = tested on: Aspergillus fumigatus; test: Antifungal activity in vitro, resazurin growth inhibition: Aspergillus fumigatus (B42928); settings: for IC50: read-out: Inf. E: Aspergillus fumigatus B42928 pIC50 (converted)
Procedure, shortened: as §1

[6] = tested on: Trichophyton mentagrophytes; test: Antifungal activity in vitro, resazurin growth inhibition: Trichophyton mentagrophytes (B70554); settings: for IC50: read-out: Inf. G: Trichophyton mentagrophytes B70554 pIC50 (converted)
Procedure, shortened: as §2

[7] = tested on: Scedosporium apiospermum; test: Antifungal activity in vitro, resazurin growth inhibition: Scedosporium apiospermum (IHEM3817); settings: for IC50: read-out: Inf. H: Scedosporium apiospermum IHEM3817 pIC50 (converted)
Description: as §3, §4

[8] = tested on: Rhizopus oryzae; test: Antifungal activity in vitro, resazurin growth inhibition: Rhizopus oryzae (IHEM5223)
Description: as §3, §4

[9] = tested on: Scedosporium prolificans; test: Antifungal activity in vitro, resazurin growth inhibition: Scedosporium prolificans (IHEM21157); settings: for IC50: Lomentospora prolificans, read-out: Inf. I: Scedosporium prolificans IHEM21157 pIC50 (converted)
Description: as §3, §4

[10] = tested on: Cryptococcus neoformans; test: Antifungal activity in vitro, resazurin growth inhibition: Cryptococcus neoformans (B66663); settings: for IC50: read-out: Inf. F: Cryptococcus neoformans B66663 pIC50 (converted)
Procedure, shortened: as §1

[11] = tested on: Sporothrix schenkii; test: Antifungal activity in vitro, resazurin growth inhibition: Sporothrix schenkii (B62482); settings: for IC50: read-out: Inf. A: Sporothrix schenkii B62482 pIC50 (converted)
Procedure, shortened: as §1

| SMILES | Inf. D: Candida parapsilosis B66126, pIC50 [1] | Inf. C: Trichophyton rubrum B68183, pIC50 [2] | Inf. B: Microsporum canis B68128, pIC50 [3] | Inf. K: Rhizomucor miehei IHEM13391, pIC50 [4] | Inf. E: Aspergillus fumigatus B42928, pIC50 [5] | Inf. G: Trichophyton mentagrophytes B70554, pIC50 [6] | Inf. H: Scedosporium apiospermum IHEM3817, pIC50 [7] | Inf. J: Rhizopus oryzae IHEM5223, pIC50 [8] | Inf. I: Scedosporium prolificans IHEM21157, pIC50 [9] | Inf. F: Cryptococcus neoformans B66663, pIC50 [10] | Inf. A: Sporothrix schenkii B62482, pIC50 [11] | IC50 [1] [nM] | IC50 [2] [nM] | IC50 [3] [nM] | IC50 [5] [nM] | IC50 [6] [nM] | IC50 [7] [nM] | IC50 [9] [nM] | IC50 [10] [nM] | IC50 [11] [nM] |
| --- | --- | --- | --- | --- | --- | --- | --- | --- | --- | --- | --- | --- | --- | --- | --- | --- | --- | --- | --- | --- |
| Clc1ccc2c(c1)-n1cccc1C(c1cc3ccccc3o1)=NC2 [Compound 119] | 5.61 | 6.87 | 6.54 | <4.19 | 6.30 | 6.62 | <4.19 | <4.19 | 6.17 | 6.40 | 6.00 |  |  |  |  |  |  |  |  |  |
| Cc1cccc2c1-n1cccc1C(c1cc3ccccc3s1)NC2.Cl (racemic) [Compound 55] | <4.19 | 6.30 | 5.70 | <4.19 | 5.55 | 5.72 | 4.86 | <4.19 | 5.47 | 5.32 | 5.04 |  |  |  |  |  |  |  |  |  |
| Clc1cccc2c1CN=C(c1cc3ccccc3o1)c1cccn1-2 [Compound 118] | 5.70 |  |  | <4.19 |  | 7.07 | <4.19 | <4.19 |  | 5.30 | 5.70 |  |  |  |  |  |  |  |  |  |
| Clc1ccc2c(c1)-n1cccc1C(c1ccncc1)=NC2 [Compound 203] | <4 | 4.67 | 4.50 |  | <4 | <4 | <4 |  | <4 | <4 | <4 |  |  |  |  |  |  |  |  |  |
| Clc1ccc2c(c1)-n1cccc1C(c1ccc3nc[nH]c3c1)=NC2 [Compound 204] | <4 | 4.67 | 4.50 |  | <4 | <4 | <4 |  | <4 | <4 | <4 |  |  |  |  |  |  |  |  |  |
| Clc1ccc2c(c1)-n1cccc1C(c1cnc3ccccc3c1)=NC2 [Compound 206] | <4 | 6.00 | 5.00 |  | 5.33 | 5.33 | 5.00 |  | 6.00 | 5.33 | 5.33 |  |  |  |  |  |  |  |  |  |
| c1ccc2c(c1)CN=C(c1cnc3ccccc3c1)c1cccn1-2 [Compound 202] |  |  |  |  |  |  |  |  |  |  |  | > 100000 | 100 | 10 | 2140 | 468 | 10000 | 100 | 10000 | 1000 |
| Clc1cccc2c1CN=C(c1ccncc1)c1cccn1-2 [Compound 198] | <4 | <4 | 4.00 |  | <4 | <4 | <4 |  | <4 | 5.00 | <4 |  |  |  |  |  |  |  |  |  |
| Clc1cccc2c1CN=C(c1cnc3ccccc3c1)c1cccn1-2 [Compound 201] |  |  |  |  |  |  |  |  |  |  |  | > 100000 | 1000 | 1000 | > 100000 | > 100000 | > 100000 | 100 | > 100000 | > 100000 |
| Clc1cccc2c1CN=C(c1cccnc1)c1cccn1-2 [Compound 199] | <4 | 5.00 | 4.50 |  | <4 | <4 | <4 |  | <4 | 5.00 | <4 |  |  |  |  |  |  |  |  |  |
| Clc1cccc2c1CN=C(c1ccc3ccccc3n1)c1cccn1-2 [Compound 197] | 4.00 | 6.00 | 6.00 |  | <4 | 5.33 | <4 |  | 5.00 | 5.00 | 5.00 |  |  |  |  |  |  |  |  |  |
| Cl.c1ccc2c(c1)CNC(c1cc3ccccc3o1)c1cccn1-2 (racemic) [Compound 29] | <4.19 | 5.70 | 5.30 |  | <4.19 | 5.30 |  |  |  | 4.80 | <4.19 |  |  |  |  |  |  |  |  |  |
| CCc1cnc(C2=NCc3c(Cl)cccc3-n3cccc32)s1 [Compound 66] | <4.19 | 6.18 | 4.98 |  | <4.19 | 4.19 |  |  |  | <4.19 | <4.19 |  |  |  |  |  |  |  |  |  |
